Legend:
CDK2/CycE = target: T1, CDK2/CycE (Homo sapiens, UniProt P24941); experiment: CDK2/CycE kinase assay (TR-FRET, Method 2a); type: biochemical; details: 10 μM ATP
T1 construct: GST; purchased ProQinase GmbH (Freiburg, Germany); host or cells: insect cells (Sf9)
Source text: 2a. CDK2/CycE Kinase Assay:
CDK2/CycE-inhibitory activity of compounds of the present invention was quantified employing the CDK2/CycE TR-FRET assay as described in the following paragraphs:
Recombinant fusion proteins of GST and human CDK2 and of GST and human CycE, expressed in insect cells (Sf9) and purified by Glutathion-Sepharose affinity chromatography, were purchased from ProQinase GmbH (Freiburg, Germany). As substrate for the kinase reaction biotinylated peptide biotin-Ttds-YISPLKSPYKISEG (C-terminus in amid form) was used which can be purchased e.g. from the company JERINI Peptide Technologies (Berlin, Germany).
(§1) For the assay 50 nl of a 100 fold concentrated solution of the test compound in DMSO was pipetted into a black low volume 384 well microtiter plate (Greiner Bio-One, Frickenhausen, Germany), 2 μl of a solution of CDK2/CycE in aqueous assay buffer [50 mM Tris/HCl pH 8.0, 10 mM MgCl2, 1.0 mM dithiothreitol, 0.1 mM sodium ortho-vanadate, 0.01% (v/v) Nonidet-P40 (Sigma)] were added and the mixture was incubated for 15 min at 22° C. to allow pre-binding of the test compounds to the enzyme before the start of the kinase reaction. […] The concentration of CDK2/CycE was adjusted depending of the activity of the enzyme lot and was chosen appropriate to have the assay in the linear range, typical concentrations were in the range of 130 ng/mL. The reaction was stopped by the addition of 5 μl of a solution of TR-FRET detection reagents (0.2 μM streptavidine-XL665 [Cisbio Bioassays, Codolet, France] and 1 nM anti-RB(pSer807/pSer811)-antibody from BD Pharmingen [#558389] and 1.2 nM LANCE EU-W1024 labeled anti-mouse IgG antibody [Perkin-Elmer, product no. AD0077]) in an aqueous EDTA-solution (100 mM EDTA, 0.2% (w/v) bovine serum albumin in 100 mM HEPES pH 7.5).
(§2) The resulting mixture was incubated 1 h at 22° C. to allow the formation of complex between the phosphorylated biotinylated peptide and the detection reagents. Subsequently the amount of phosphorylated substrate was evaluated by measurement of the resonance energy transfer from the Eu-chelate to the streptavidine-XL. Therefore, the fluorescence emissions at 620 nm and 665 nm after excitation at 350 nm was measured in a TR-FRET reader, e.g. a Rubystar (BMG Labtechnologies, Offenburg, Germany) or a Viewlux (Perkin-Elmer). The ratio of the emissions at 665 nm and at […] was taken as the measure for the amount of phosphorylated substrate. The data were normalised (enzyme reaction without inhibitor=0% inhibition, all other assay components but no enzyme=100% inhibition).

CDK9/CycT1 = target: T2, CDK9/CycT1 (Homo sapiens, UniProt P50750); experiment: CDK9/CycT1 kinase assay (TR-FRET, Method 1a); type: biochemical; details: for IC50: Method 1a, 10 μM ATP; for Selectivity CDK9 over CDK2: IC50 (CDK2)/IC50 (CDK9): Methods 1a and 2a, minimal values where CDK9 IC50 is at the assay limit
T2 construct: Recombinant full-length His-tagged human CDK9 and CycT1; His; purchased Invitrogen PV4131; host or cells: insect cells
T2 sequence (P50750 whole entry): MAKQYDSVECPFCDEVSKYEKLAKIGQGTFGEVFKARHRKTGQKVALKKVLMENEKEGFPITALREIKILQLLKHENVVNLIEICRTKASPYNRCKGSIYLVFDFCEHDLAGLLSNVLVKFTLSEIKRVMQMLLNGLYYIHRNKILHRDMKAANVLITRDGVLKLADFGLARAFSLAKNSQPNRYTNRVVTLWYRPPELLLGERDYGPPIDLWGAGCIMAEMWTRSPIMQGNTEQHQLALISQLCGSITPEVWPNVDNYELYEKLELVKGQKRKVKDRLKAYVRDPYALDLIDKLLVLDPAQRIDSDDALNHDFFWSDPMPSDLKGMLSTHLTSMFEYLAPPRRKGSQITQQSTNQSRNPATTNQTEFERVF
T2 sequence (O60563 whole entry partner): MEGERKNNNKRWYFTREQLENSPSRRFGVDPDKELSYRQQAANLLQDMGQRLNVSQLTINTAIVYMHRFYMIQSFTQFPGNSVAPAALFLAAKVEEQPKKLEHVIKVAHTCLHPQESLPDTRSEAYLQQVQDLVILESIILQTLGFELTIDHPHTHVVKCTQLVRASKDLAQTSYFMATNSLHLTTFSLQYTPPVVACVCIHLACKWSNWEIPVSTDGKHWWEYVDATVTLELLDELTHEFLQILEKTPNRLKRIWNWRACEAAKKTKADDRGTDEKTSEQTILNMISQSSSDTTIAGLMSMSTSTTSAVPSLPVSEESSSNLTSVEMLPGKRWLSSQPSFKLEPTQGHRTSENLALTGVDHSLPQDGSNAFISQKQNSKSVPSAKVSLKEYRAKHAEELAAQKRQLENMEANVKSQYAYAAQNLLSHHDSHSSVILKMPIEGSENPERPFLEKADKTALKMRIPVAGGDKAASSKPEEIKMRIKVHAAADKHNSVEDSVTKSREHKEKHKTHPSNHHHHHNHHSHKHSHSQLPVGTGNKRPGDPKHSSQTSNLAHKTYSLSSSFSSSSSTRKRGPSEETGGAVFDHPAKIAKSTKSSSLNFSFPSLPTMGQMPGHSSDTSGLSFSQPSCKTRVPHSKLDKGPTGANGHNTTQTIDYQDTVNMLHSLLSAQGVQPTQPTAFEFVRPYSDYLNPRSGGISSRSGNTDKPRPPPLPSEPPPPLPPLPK
Source text: 1a. CDK9/CycT1 Kinase Assay:
CDK9/CycT1-inhibitory activity of compounds of the present invention was quantified employing the CDK9/CycT1 TR-FRET assay as described in the following paragraphs:
as §1, with “Recombinant full-length His-tagged human CDK9 and CycT1, expressed in insect cells and purified by Ni-NTA affinity chromatography, were purchased from Invitrogen (Cat. No PV4131). As substrate for the kinase reaction biotinylated peptide biotin-Ttds-YISPLKSPYKISEG (C-terminus in amid form) was used which can be purchased e.g. from the company JERINI Peptide Technologies (Berlin, Germany). For” for “For”, “CDK9/CycT1” for “CDK2/CycE”, “1 μg/mL.” for “130 ng/mL.”
as §2, with “HTRF” for “TR-FRET”

| Molecule | IC50 (CDK2/CycE) [nM] | IC50 (CDK9/CycT1) [nM] | Selectivity CDK9 over CDK2: IC50 (CDK2)/IC50 (CDK9) (CDK9/CycT1) |
| --- | --- | --- | --- |
| ({[15,19-difluoro-3,4-dihydro-2H,11H-10,6-(azeno)-12,16-(metheno)-1,5,11,13-benzodioxadiazacyclooctadecin-8-yl]methyl}sulfonyl)acetic acid [Example 27] | 2.3 | 2.9 | 0.8 |
| CS(=O)(Cc1cc2nc(c1)OCCCOc1cc(F)ccc1-c1cc(ncc1F)N2)=NC(=O)OCCN (racemic) [Example 25, (rac)-2-aminoethyl [{[15,19-difluoro-3,4-dihydro-2H,11H-10,6-(azeno)-12,16-(metheno)-1,5,11,13-benzodioxadiazacyclooctadecin-8-yl]methyl}(methyl)oxido-λ^6-sulfanylidene]carbamate] | 5.6 | 4.3 | 1.3 |
| CSCc1cc2cc(c1)OCCCOc1cc(F)ccc1-c1nc(ncc1F)N2 [Example 2, 15,19-Difluoro-8-[(methylsulfanyl)methyl]-3,4-dihydro-2H,11H-12,16-(azeno)-10,6-(metheno)-1,5,11,13-benzodioxadiazacyclooctadecine] | 97.8 | 7.3 | 13.5 |
| C[S+]([O-])Cc1cc2nc(c1)OCCOc1cc(F)ccc1-c1cc(ncc1F)N2 (racemic) [Example 10, (rac)-14,18-difluoro-7-[(methylsulfinyl)methyl]-2,3-dihydro-10H-9,5-(azeno)-11,15-(metheno)-1,4,10,12-benzodioxadiazacycloheptadecine] | 415 | 7.3 | 56.5 |
| CN=S(C)(=O)Cc1cc2nc(c1)OCCCOc1cc(F)ccc1-c1cc(ncc1F)N2 (racemic) [Example 19, (rac)-8-[(N,S-dimethylsulfonimidoyl)methyl]-15,19-difluoro-3,4-dihydro-2H,11H-10,6-(azeno)-12,16-(metheno)-1,5,11,13-benzodioxadiazacyclooctadecine] | 15.4 | 5.3 | 2.9 |
| CS(=O)(Cc1cc2cc(c1)OCCCOc1cc(F)ccc1-c1nc(ncc1F)N2)=NC(=O)C(F)(F)F (racemic) [Example 16, (rac)-N-[{[15,19-difluoro-3,4-dihydro-2H,11H-12,16-(azeno)-10,6-(metheno)-1,5,11,13-benzodioxadiazacyclooctadecin-8-yl]methyl}(methyl)oxido-λ^6-sulfanylidene]-2,2,2-trifluoroacetamide] | 58.2 | 3.9 | 14.8 |
| CCNC(=O)N=S(C)(=O)Cc1cc2nc(c1)OCCCOc1cc(F)ccc1-c1cc(ncc1F)N2 (racemic) [Example 17, (rac)-1-[{[15,19-difluoro-3,4-dihydro-2H,11H-10,6-(azeno)-12,16-(metheno)-1,5,11,13-benzodioxadiazacyclooctadecin-8-yl]methyl}(methyl)oxido-λ^6-sulfanylidene]-3-ethylurea] | 5.6 | 4.4 | 1.3 |

Results, then the molecule that gave them:

| IC50 (CDK2/CycE) [nM] | IC50 (CDK9/CycT1) [nM] | Selectivity CDK9 over CDK2: IC50 (CDK2)/IC50 (CDK9) (CDK9/CycT1) | Molecule |
| --- | --- | --- | --- |
| 8.2 | 4.9 | 1.7 | CC(=O)N=S(C)(=O)Cc1cc2nc(c1)OCCCOc1cc(F)ccc1-c1cc(ncc1F)N2 (racemic) [Example 18, (rac)-N-[{[15,19-difluoro-3,4-dihydro-2H,11H-10,6-(azeno)-12,16-(metheno)-1,5,11,13-benzodioxadiazacyclooctadecin-8-yl]methyl}(methyl)oxido-λ^6-sulfanylidene]acetamide] |
| 11.6 | 7.3 | 1.6 | CS(=O)(Cc1cc2nc(c1)OCCCOc1cc(F)ccc1-c1cc(ncc1F)N2)=NC(=O)OCCCl (racemic) [Example 21, (rac)-2-chloroethyl [{[15,19-difluoro-3,4-dihydro-2H,11H-10,6-(azeno)-12,16-(metheno)-1,5,11,13-benzodioxadiazacyclooctadecin-8-yl]methyl}(methyl)oxido-λ^6-sulfanylidene]carbamate] |
| 26 | 3.8 | 6.8 | CS(=N)(=O)Cc1cc2cc(c1)OCCCOc1cc(F)ccc1-c1nc(ncc1F)N2 (racemic) [Example 15, (rac)-15,19-difluoro-8-[(S-methylsulfonimidoyl)methyl]-3,4-dihydro-2H,11H-12,16-(azeno)-10,6-(metheno)-1,5,11,13-benzodioxadiazacyclooctadecine] |
| 19.8 | 4.8 | 4.1 | CS(=N)(=O)Cc1cc2nc(c1)OCCCCOc1cc(F)ccc1-c1cc(ncc1F)N2 (racemic) [Example 14, (rac)-16,20-difluoro-9-[(S-methylsulfonimidoyl)methyl]-2,3,4,5-tetrahydro-12H-11,7-(azeno)-13,17-(metheno)-1,6,12,14-benzodioxadiazacyclononadecine] |
| 13.5 | 2.2 | 6.2 | CS(=O)(Cc1cc2nc(c1)OCCCOc1cc(F)ccc1-c1cc(ncc1F)N2)=NS(=O)(=O)CCN.O=C(O)C(F)(F)F (racemic) [Example 24, (rac)-2-{[{[15,19-difluoro-3,4-dihydro-2H,11H-10,6-(azeno)-12,16-(metheno)-1,5,11,13-benzodioxadiazacyclooctadecin-8-yl]methyl}(methyl)oxido-λ^6-sulfanylidene]sulfamoyl}ethanaminium trifluoroacetate] |
| 30.2 | 8.7 | 3.5 | CS(=O)(Cc1cc2nc(c1)OCCCOc1cc(F)ccc1-c1cc(ncc1F)N2)=NS(=O)(=O)CCN (racemic) [Example 23, (rac)-2-amino-N-[{[15,19-difluoro-3,4-dihydro-2H,11H-10,6-(azeno)-12,16-(metheno)-1,5,11,13-benzodioxadiazacyclooctadecin-8-yl]methyl}(methyl)oxido-λ^6-sulfanylidene]ethanesulfonamide] |
